The values that follow come from patent US20240376094A2, “SELECTIVE BCL-XL PROTAC COMPOUNDS AND METHODS OF USE” (Les Laboratoires Servier, priority 2021, published 2024).

Structures are written as SMILES. Where only a bound is given, the exact number is not on record here.

What all share (format): cell-based
The subject of test [1] is MOLT-4 cells. As to the kind of experiment: MOLT-4 cell viability, CTG assay. Conditions: Homo sapiens, MOLT-4, 48 h. In outline: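 Viability read as total ATP luminescence (CTG) after 48 h compound treatment, 11 points at 5-fold spacing in triplicate, cells in RPMI 1640/10% FBS. IC50 is the concentration halving signal relative to control, four-parameter fit, averaged over at least 2 experiments.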

Test [2] deals with T1, Bcl-xL (Homo sapiens, UniProt Q07817).
T1 construct: Measured levels of Bcl-xL protein of HCT116 cells treated with the tested compounds; host or cells: HCT116
As to the kind of experiment: HCT116 Bcl-xL degradation, capillary-based immunoassay (WES). Conditions: for DC50: HCT116, 24 h, 9-point serial dilution. In outline: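 Bcl-xL protein level by capillary WES immunoassay in HCT116 lysates, as % of untreated after cofilin normalization. Compound exposure was 24 h at 10 and 100 nM and/or a 9-point series, in quadruplicate. Four-parameter fitting gave the DC50.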

Test [3] relates to EBC-1 lung cancer cell line. As to the kind of experiment: EBC-1 cell proliferation, CellTiter-Glo assay. The note with it: Homo sapiens, 120 h; Ebc-1 cell viability, CTG assay, 5 days of treatment; read-out: CTG 5 day Ebc1 GI50. In outline:
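CellTiter-Glo read-out after 5-day compound treatment, normalised to untreated cells, with GI50 derived by four-parameter logistic regression. Ten concentrations spanning 0.508 nM–10 μM were added to 1000 EBC-1 cells per well the day after seeding. Assays required at least one cell doubling versus Day 0.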
On the technique in general: In ATP-based viability assays light output follows the ATP content of the culture.

Test [4] concerns the target T2, HiBiT-tagged BCL-xL (Homo sapiens, UniProt Q07817).
T2 construct: expressed in transfected cells; host or cells: NCI-H1650 (ATCC No. CRL-5883), engineered HiBiT cell line
As to the kind of experiment: NCI-H1650 BCL-xL protein levels, Nano-Glo HiBiT Lytic Detection. The note with it: NCI-H1650 expressing HiBiT-tagged BCL-xL, overnight incubation, read-out: Bcl-xl HIBIT NCIH1650 DC50. The procedure, abridged: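 HiBiT luminescence after cell lysis with LgBiT/furimazine reagent reported BCL-xL levels, expressed relative to untreated wells and fitted with a four-parameter logistic equation. Engineered NCI-H1650 cells were exposed overnight at 37° C to compound at final 0.508 nM-10 μM (10 points, triplicate plates).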
In general terms: The HiBiT peptide binds its large partner to form an active luciferase.

T1 sequence (Q07817 whole entry): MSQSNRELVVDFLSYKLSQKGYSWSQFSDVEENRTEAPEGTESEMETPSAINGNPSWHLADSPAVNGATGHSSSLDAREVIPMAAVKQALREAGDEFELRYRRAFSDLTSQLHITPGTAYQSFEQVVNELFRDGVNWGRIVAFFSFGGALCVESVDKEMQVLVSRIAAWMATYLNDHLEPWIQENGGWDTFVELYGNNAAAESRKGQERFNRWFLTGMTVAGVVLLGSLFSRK
T2 sequence (Q07817 whole entry): as above

What is called IC50 is the midpoint of a concentration-inhibition curve. High values mean weaker potency in that assay, low ones greater potency in that assay. As a reminder, the GI50 is the concentration giving 50% growth inhibition. `CNC(=O)c1nc(N2CCCc3c2nnc(Nc2nc4ccccc4s2)c3C)ccc1-c1cnn(CC23CC4(C)CC(C)(C2)CC(OCCN(C)CCCCCCCCCCCCCC(=O)N[C@H](C(=O)N2C[C@H](O)C[C@H]2C(=O)N[C@@H](C)c2ccc(-c5scnc5C)cc2)C(C)(C)C)(C4)C3)c1C` [Example 156, 6-[3-(1,3-benzothiazol-2-ylamino)-4-methyl-6,7-dihydro-5H-pyrido[2,3-c]pyridazin-8-yl]-3-[1-[[3-[2-[[14-[[(1S)-1-[(2S,4R)-4-hydroxy-2-[[(1S)-1-[4-(4-methylthiazol-5-yl)phenyl]ethyl]carbamoyl]pyrrolidine-1-carbonyl]-2,2-dimethyl-propyl]amino]-14-oxo-tetradecyl]-methyl-amino]ethoxy]-5,7-dimethyl-1-adamantyl]methyl]-5-methyl-pyrazol-4-yl]-N-methyl-pyridine-2-carboxamide] displayed an IC50 in test [1] of 6.48 nM. In addition, the DC50 in test [2] worked out at 14.5 nM; in test [4], 228 nM. In addition, the GI50 in test [3] came out at 27 nM.
In test [1], `Cc1c(Nc2nc3ccccc3s2)nnc2c1CCCN2c1ccc(-c2cnn(CC34CC5(C)CC(C)(C3)CC(OCCN(C)CCCCCCCCCCCCCCCOc3ccc6c(c3)C(=O)N(C3CCC(=O)NC3=O)C6=O)(C5)C4)c2C)c(C(=O)O)n1` (centres unmarked) [Example 119, 6-[3-(1,3-benzothiazol-2-ylamino)-4-methyl-6,7-dihydro-5H-pyrido[2,3-c]pyridazin-8-yl]-3-[1-[[3-[2-[15-[2-(2,6-dioxo-3-piperidyl)-1,3-dioxo-isoindolin-5-yl]oxypentadecyl-methyl-amino]ethoxy]-5,7-dimethyl-1-adamantyl]methyl]-5-methyl-pyrazol-4-yl]pyridine-2-carboxylic acid] came in with a concentration for half-maximal inhibition (IC50) of 4.78 nM. The DC50 in test [2] was 0.681 nM; in test [4], over 1670 nM. Also, the GI50 in test [3] was 69 nM.
Turning to `Cc1ncsc1-c1ccc([C@H](C)NC(=O)[C@@H]2C[C@@H](O)CN2C(=O)[C@@H](NC(=O)CCOCCN(C)CCOC23CC4(C)CC(C)(CC(Cn5ncc(-c6ccc(N7CCCc8c7nnc(Nc7nc9ccccc9s7)c8C)nc6C(=O)O)c5C)(C4)C2)C3)C(C)(C)C)cc1` [Example 103, 6-[3-(1,3-benzothiazol-2-ylamino)-4-methyl-6,7-dihydro-5H-pyrido[2,3-c]pyridazin-8-yl]-3-[1-[[3-[2-[2-[3-[[(1S)-1-[(2S,4R)-4-hydroxy-2-[[(1S)-1-[4-(4-methylthiazol-5-yl)phenyl]ethyl]carbamoyl]pyrrolidine-1-carbonyl]-2,2-dimethyl-propyl]amino]-3-oxo-propoxy]ethyl-methyl-amino]ethoxy]-5,7-dimethyl-1-adamantyl]methyl]-5-methyl-pyrazol-4-yl]pyridine-2-carboxylic acid], it took 63.4 nM to reach half-maximal inhibition in test [1] (IC50). In addition, the DC50 in test [2] was 13.6 nM; in test [4], over 1670 nM. In test [3], the GI50 turned out to be 378 nM.
In the same order, the values of `Cc1ncsc1-c1ccc([C@H](C)NC(=O)[C@@H]2C[C@@H](O)CN2C(=O)[C@@H](NC(=O)C2CCN(C(=O)CCCCCCCN(C)CCOC34CC5(C)CC(C)(CC(Cn6ncc(-c7ccc(N8CCCc9c8nnc(Nc8nc%10ccccc%10s8)c9C)nc7C(=O)O)c6C)(C5)C3)C4)CC2)C(C)(C)C)cc1` [Example 81, 6-[3-(1,3-benzothiazol-2-ylamino)-4-methyl-6,7-dihydro-5H-pyrido[2,3-c]pyridazin-8-yl]-3-[1-[[3-[2-[[8-[4-[[(1S)-1-[(2S,4R)-4-hydroxy-2-[[(1S)-1-[4-(4-methylthiazol-5-yl)phenyl]ethyl]carbamoyl]pyrrolidine-1-carbonyl]-2,2-dimethyl-propyl]carbamoyl]-1-piperidyl]-8-oxo-octyl]-methyl-amino]ethoxy]-5,7-dimethyl-1-adamantyl]methyl]-5-methyl-pyrazol-4-yl]pyridine-2-carboxylic acid] are 15.1 nM, over 316 nM, over 1670 nM and 203 nM.
Regarding `Cc1cc(N(CCCCN(C)C(=O)CCCCCCCCCSC(C)(C)[C@H](NC(=O)C2(F)CC2)C(=O)N2C[C@H](O)C[C@H]2C(=O)NCc2ccc(-c3scnc3C)cc2)c2ccc(-c3cnn(CC45CC6(C)CC(C)(C4)CC(OCCN(C)C)(C6)C5)c3C)c(C(=O)O)n2)nnc1Nc1nc2ccccc2s1` [Example 126, 6-[[6-(1,3-benzothiazol-2-ylamino)-5-methyl-pyridazin-3-yl]-[4-[10-[(2R)-2-[(1-fluorocyclopropanecarbonyl)amino]-3-[(2S,4R)-4-hydroxy-2-[[4-(4-methylthiazol-5-yl)phenyl]methylcarbamoyl]pyrrolidin-1-yl]-1,1-dimethyl-3-oxo-propyl]sulfanyldecanoyl-methyl-amino]butyl]amino]-3-[1-[[3-[2-(dimethylamino)ethoxy]-5,7-dimethyl-1-adamantyl]methyl]-5-methyl-pyrazol-4-yl]pyridine-2-carboxylic acid], the IC50 in test [1] stood at 240 nM. Besides, the DC50 in test [2] is over 316 nM; in test [4] it was over 1670 nM. The 50% growth inhibitory concentration (GI50) in test [3] turned out to be 1430 nM.
In general, remaining activity refers to the signal under treatment as a percentage of the control signal. The molecule `Cc1ncsc1-c1ccc([C@H](C)NC(=O)[C@@H]2C[C@@H](O)CN2C(=O)[C@@H](NC(=O)CCCCCCCCCN(C)CCOC23CC4(C)CC(C)(CC(Cn5ncc(-c6ccc(N7CCCc8c7nnc(Nc7nc9ccccc9s7)c8C)nc6C(=O)O)c5C)(C4)C2)C3)C(C)(C)C)cc1` [Example 133, 6-[3-(1,3-benzothiazol-2-ylamino)-4-methyl-6,7-dihydro-5H-pyrido[2,3-c]pyridazin-8-yl]-3-[1-[[3-[2-[[10-[[(1S)-1-[(2S,4R)-4-hydroxy-2-[[(1S)-1-[4-(4-methylthiazol-5-yl)phenyl]ethyl]carbamoyl]pyrrolidine-1-carbonyl]-2,2-dimethyl-propyl]amino]-10-oxo-decyl]-methyl-amino]ethoxy]-5,7-dimethyl-1-adamantyl]methyl]-5-methyl-pyrazol-4-yl]pyridine-2-carboxylic acid] yielded an IC50 in test [1] of 10.2 nM. Further, the remaining activity at 0.01 µM in test [2] (HCT-116, HCT116, 10 nM, 24 h, % of untreated cells) was determined as 112%. Moreover, the remaining activity at 0.1 µM in test [2] (HCT-116, HCT116, 100 nM, 24 h, % of untreated cells) was 105%. In test [3], the concentration for 50% growth inhibition (GI50) is 4 nM. Moreover, in test [4], the DC50 is over 1670 nM.
As to `Cc1ncsc1-c1ccc([C@H](C)NC(=O)[C@@H]2C[C@@H](O)CN2C(=O)[C@@H](NC(=O)COCCCCCCCCCCCCCN(C)CCOC23CC4(C)CC(C)(CC(Cn5ncc(-c6ccc(N7CCCc8c7nnc(Nc7nc9ccccc9s7)c8C)nc6C(=O)O)c5C)(C4)C2)C3)C(C)(C)C)cc1` [Example 111, 6-[3-(1,3-benzothiazol-2-ylamino)-4-methyl-6,7-dihydro-5H-pyrido[2,3-c]pyridazin-8-yl]-3-[1-[[3-[2-[13-[2-[[(1S)-1-[(2S,4R)-4-hydroxy-2-[[(1S)-1-[4-(4-methylthiazol-5-yl)phenyl]ethyl]carbamoyl]pyrrolidine-1-carbonyl]-2,2-dimethyl-propyl]amino]-2-oxo-ethoxy]tridecyl-methyl-amino]ethoxy]-5,7-dimethyl-1-adamantyl]methyl]-5-methyl-pyrazol-4-yl]pyridine-2-carboxylic acid], the IC50 in test [1] was 2.62 nM. The DC50 came to 0.4 nM in test [2] and 0.5 nM in test [4]. Moreover, the GI50 in test [3] was 41 nM.
